Among the data in US11999728B2, “Estrogen receptor modulators” (Recurium IP Holdings, LLC, priority 2020, dated 2024) are IC50 values, retold here.

This assay concerns MCF7. The assay is described as follows: Breast Cancer Cell Proliferation Assay (MCF-7), Cell Titer-Glo. The class given is cell-based. Conditions: Homo sapiens, MCF7, 120 h, MCF7 cells, 5 days of compound exposure. How it is done:
Breast Cancer Cell Proliferation Assay (MCF-7)
MCF7 was expanded and maintained in the medium (Phenol red free DMEM/F12 (Hyclone SH30272.01) NEAA (Gibco11140-050) Na-pyruvate (Gibco 11360-070) and Re-stripped Charcoal stripped FBS (Gemini 100-119)). The cells were adjusted to a concentration of 3,000 cells per mL in the above media, and the cells were incubated (37° C., 5% CO2). The following day a 10-point, serial dilution of compounds was added to the cells at a final concentration ranging from 10-0.000005 μM for test compounds (17β-estradiol was used as a control). Additional cells were plated in 30 wells to serve as the day 1 (pretreatment) comparison. After 5 days of compound exposure, Cell Titer-Glo reagent was added to the cells and the relative luminescence units (RLUs) of each well was determined. Cell Titer-Glo was also added to 32 μL of medium without cells to obtain a background value. The plates were allowed to incubate at room temperature for 10 minutes to stabilize luminescent signal and the luminescence signal was recorded with EnSpire. The relative increase in cell number of each sample is determined as follows: (RLU sample-RLU background/RLU estrogen only treated cells-RLU background)×100=% inhibition.
(In ATP-based viability assays light output follows the ATP content of the culture.)

As usually defined, the pIC50 is the IC50 on a negative log10 scale, so that one unit is a factor of ten. High values mean a small IC50, low ones a large IC50.

pIC50: −log10 of the molar value.

For the molecule `CCCN1C[C@@H](F)[C@H](Nc2ccc([C@@H]3c4[nH]c5ccccc5c4C[C@@H](C)N3C34CC(C3)C4)cc2)C1` [Compound 87, (3R,4R)—N-(4-((1R,3R)-2-(bicyclo[1.1.1]pentan-1-yl)-3-methyl-2,3,4,9-tetrahydro-1H-pyrido[3,4-b]indol-1-yl)phenyl)-4-fluoro-1-propylpyrrolidin-3-amine], the pIC50 was ≥ 7.60.
With `C[C@H]1Cc2c([nH]c3ccccc23)[C@H](c2ccc(NC3CN(CCCF)C3)cc2)N1C12CC(CF)(C1)C2` (single isomer, unassigned) [Compound 63] the figure was ≥ 7.60.
As for `C[C@@H]1Cc2c([nH]c3ccccc23)[C@@H](c2c(F)cc(OC3CN(CCCF)C3)cc2F)N1C12CC(C1)C2` [Compound 23, (1R,3R)-2-(bicyclo[1.1.1]pentan-1-yl)-1-(2,6-difluoro-4-((1-(3-fluoropropyl)azetidin-3-yl)oxy)phenyl)-3-methyl-2,3,4,9-tetrahydro-1H-pyrido[3,4-b]indole], the figure is ≥ 7.60; as for `C[C@@H]1Cc2c([nH]c3ccccc23)[C@@H](c2ccc(O[C@@H]3CCN(CCCF)C3)cn2)N1C12CC(C1)C2` (single isomer, unassigned) [Compound 11], ≤ 6.60; as for `CCCN1CC(Oc2ccc([C@@H]3c4[nH]c5ccccc5c4C[C@@H](C)N3C34CC(CO)(C3)C4)cc2)C1` (single isomer, unassigned) [Compound 52], ≥ 7.60.
For the molecule `C=CCN1CC(Nc2ccc([C@@H]3c4[nH]c5ccccc5c4C[C@@H](C)N3C34CC(C3)C4)cc2)C1` [Compound 64, 1-allyl-N-(4-((1R,3R)-2-(bicyclo[1.1.1]pentan-1-yl)-3-methyl-2,3,4,9-tetrahydro-1H-pyrido[3,4-b]indol-1-yl)phenyl)azetidin-3-amine], the pIC50 is ≥ 7.60.
On to `CCCN1CC(Oc2ccc([C@@H]3c4[nH]c5ccccc5c4C[C@@H](C)N3C34CC(C3)C4)cn2)C1` [Compound 43, (1R,3R)-2-(bicyclo[1.1.1]pentan-1-yl)-3-methyl-1-(6-((1-propylazetidin-3-yl)oxy)pyridin-3-yl)-2,3,4,9-tetrahydro-1H-pyrido[3,4-b]indole], for which the pIC50 is 6.60 to 7.60.
With `CCCN1CC(Nc2ccc([C@@H]3c4[nH]c5ccccc5c4C[C@@H](C)N3C34CC(C3)C4)cn2)C1` [Compound 30, 5-((1R,3R)-2-(bicyclo[1.1.1]pentan-1-yl)-3-methyl-2,3,4,9-tetrahydro-1H-pyrido[3,4-b]indol-1-yl)-N-(1-propylazetidin-3-yl)pyridin-2-amine] the figure was ≤ 6.60.
As for `C[C@@H]1Cc2c([nH]c3ccccc23)[C@@H](c2cnc(NC3CN(CCCF)C3)c(F)c2)N1C12CC(C1)C2` [Compound 41, 5-((1R,3R)-2-(bicyclo[1.1.1]pentan-1-yl)-3-methyl-2,3,4,9-tetrahydro-1H-pyrido[3,4-b]indol-1-yl)-3-fluoro-N-(1-(3-fluoropropyl)azetidin-3-yl)pyridin-2-amine], the figure is ≤ 6.60.
In the case of `C[C@@H]1Cc2c([nH]c3ccccc23)[C@@H](c2ccc(N[C@H]3CN(CCCF)C[C@@H]3O)cc2)N1C12CC(C1)C2` (single isomer, unassigned) [Compound 79], the negative-log IC50 (pIC50) was 6.60 to 7.60.
With `C#CCN1CC(Nc2ccc([C@@H]3c4[nH]c5ccccc5c4C[C@@H](C)N3C34CC(C3)C4)cc2)C1` [Compound 65, N-(4-((1R,3R)-2-(bicyclo[1.1.1]pentan-1-yl)-3-methyl-2,3,4,9-tetrahydro-1H-pyrido[3,4-b]indol-1-yl)phenyl)-1-(prop-2-yn-1-yl)azetidin-3-amine] the figure was ≥ 7.60; with `COc1cc(NC2CN(CCCF)C2)cnc1[C@@H]1c2[nH]c3ccccc3c2C[C@@H](C)N1C12CC(C1)C2` [Compound 94, 6-((1S,3R)-2-(bicyclo[1.1.1]pentan-1-yl)-3-methyl-2,3,4,9-tetrahydro-1H-pyrido[3,4-b]indol-1-yl)-N-(1-(3-fluoropropyl)azetidin-3-yl)-5-methoxypyridin-3-amine], ≤ 6.60.
